This passage reports IC50 results from patent US10087166B2, “Cyclic amine azaheterocyclic carboxamides” (Merck Patent GmbH, priority 2010, dated 2018).

The experiment deals with T1, P70S6K (Homo sapiens, UniProt P23443, T412E).
T1 construct: purchased Millipore
In words: P70S6K enzyme assay. It is filed as biochemical. The note with it: P70S6K T412E mutant 3 nM, 24 μM ATP, FITC-AHA-AKRRRLSSLRA-OH substrate, 90 min at 25° C.; read-out: IC50p70S6K. How it is done: P70S6K inhibitor compounds are diluted and plated in 96 well plates. A reaction mixture including the following components is then added to the compound plate to initiate the enzyme reaction; P70S6K (3 nM, T412E mutant, Millipore) is mixed with 24 μM ATP in an assay buffer containing 100 mM Hepes (pH 7.5), 5 mM MgCl2, 1 mM DTT, 0.015% Brij and 1 μM of the substrate peptide FITC-AHA-AKRRRLSSLRA-OH (derived from the S6 ribosomal protein sequence, FITC=fluorescein isothiocyanate, AHA=6-aminohexanoic acid). The reaction is incubated for 90 min at 25° C., before the addition of 10 mM EDTA to stop the reaction. The proportion of substrate and product (phosphorylated) peptide is analyzed on a Caliper Life Sciences Lab Chip 3000, using a pressure of −1.4 psi, and upstream and downstream voltages of −3000 and −700 respectively. Product peaks are resolved before substrate peaks on the resulting chromatograms.
To assess the inhibitory potential of the compounds, IC50-values were determined, as shown in Chemical Synthesis section above.

T1 sequence (P23443 whole entry T412E): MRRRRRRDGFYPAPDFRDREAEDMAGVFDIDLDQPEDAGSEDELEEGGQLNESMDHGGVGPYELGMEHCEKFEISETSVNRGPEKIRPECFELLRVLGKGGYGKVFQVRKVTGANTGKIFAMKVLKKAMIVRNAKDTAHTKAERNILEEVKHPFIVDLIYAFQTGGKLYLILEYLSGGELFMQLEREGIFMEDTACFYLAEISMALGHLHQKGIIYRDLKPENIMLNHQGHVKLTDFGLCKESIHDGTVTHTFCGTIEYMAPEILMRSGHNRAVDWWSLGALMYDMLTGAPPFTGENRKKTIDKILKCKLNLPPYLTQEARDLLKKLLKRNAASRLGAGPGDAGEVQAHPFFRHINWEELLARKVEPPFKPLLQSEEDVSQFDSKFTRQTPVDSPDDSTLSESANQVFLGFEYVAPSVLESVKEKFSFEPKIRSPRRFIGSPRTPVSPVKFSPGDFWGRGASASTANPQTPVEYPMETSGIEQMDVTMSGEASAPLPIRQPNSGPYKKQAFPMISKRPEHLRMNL

With `CCc1nc(N[C@@H]2CNCC[C@H]2c2cccc(C(F)(F)F)c2)c2cccc(C(N)=O)c2n1` (racemic) [compound 125], the IC50 came out at 3.9 nM.
As to `COc1cccc([C@@H]2CCNC[C@H]2Nc2nc(C)nc3c(C(N)=O)cccc23)c1` (racemic) [compound 126], the IC50 came to 4.5 nM.
In the case of `NC(=O)c1cccc2c(N[C@@H]3CNCC[C@H]3c3ccc(C(F)(F)F)cc3)ncnc12` (racemic) [compound 127], the IC50 turned out to be 2 nM.
The value for `Cc1nc(N[C@@H]2CNCC[C@H]2c2ccc(F)cc2)c2cccc(C(N)=O)c2n1` (racemic) [compound 132] was 5.4 nM; that for `CCc1nc(N[C@@H]2CNCC[C@H]2c2ccc(F)cc2)c2cccc(C(N)=O)c2n1` (racemic) [compound 133] was 3.6 nM; that for `Cc1nc(N[C@@H]2CNCC[C@H]2c2ccc(F)cc2)c2cccc(C(N)=O)c2n1` (racemic) [compound 134] was 4.2 nM.
To `COc1cccc([C@@H]2CCNC[C@H]2Nc2ncnc3c(C(N)=O)cccc23)c1` (racemic) [compound 135] belongs 4.3 nM; to `Cc1nc(N[C@@H]2CNCC[C@H]2c2ccccc2F)c2cccc(C(N)=O)c2n1` (racemic) [compound 136], 210 nM; to `Cc1nc(N[C@@H]2CNCC[C@H]2c2cccc(C(F)(F)F)c2)c2cccc(C(N)=O)c2n1` (racemic) [compound 138, 2-methyl-4-(((3R,4R)-4-(3-(trifluoromethyl)phenyl)piperidin-3-yl)amino)quinazoline-8-], 2.7 nM.
To `COc1ccc([C@@H]2CCNC[C@H]2Nc2ncnc3c(C(N)=O)cccc23)cc1OC` (racemic) [compound 139] belongs 18 nM; to `NC(=O)c1cccc2c(N[C@@H]3CNCC[C@H]3c3cc(F)cc(C(F)(F)F)c3)ncnc12` (racemic) [compound 140], 3.1 nM; to `Cc1nc(N[C@@H]2CNCC[C@H]2c2ccc(C(F)(F)F)cc2)c2cccc(C(N)=O)c2n1` (racemic) [compound 141], 2.9 nM.
With `CCc1nc(N[C@@H]2CNCC[C@H]2c2ccccc2F)c2cccc(C(N)=O)c2n1` (racemic) [compound 142], the IC50 is 450 nM.
On to `CCc1nc(N[C@@H]2CNCC[C@H]2c2cccc(C)c2)c2cccc(C(N)=O)c2n1` (racemic) [compound 144], for which the IC50 was found to be 5 nM.
To `Cc1cc(C)cc(C2CCNCC2Nc2ncnc3c(C(N)=O)cccc23)c1` (racemic) [compound 145, 4-((4-(3,5-dimethylphenyl)piperidin-3-yl)amino)quinazoline-8-carboxamide] belongs 10 nM; to `NC(=O)c1cc(F)cc2c(N[C@@H]3CNCC[C@H]3c3ccccc3)ncnc12` (racemic) [compound 146, 6-fluoro-4-(((3R,4R)-4-phenylpiperidin-3-yl)amino)quinazoline-8-carboxamide], 7.1 nM.
To `NC(=O)c1cccc2c(N[C@@H]3CNC[C@H]3C(=O)Nc3ccccc3)ncnc12` (relative stereo) [compound 26, trans-4-(4-Phenylcarbamoyl-pyrrolidin-3-ylamino)-quinazoline-8-carboxylic acid amide] belongs 22 nM; to `NC(=O)c1cccc2c(NC3CNCC3c3ccccc3F)ncnc12` (centres unmarked) [compound 4, 4-((4-(2-fluorophenyl)pyrrolidin-3-yl)amino)quinazoline-8-carboxamide], 3.5 nM; to `NC(=O)c1cccc2c(NC3CNCC3c3ccc(F)cc3)ncnc12` (centres unmarked) [compound 5, 4-((4-(4-fluorophenyl)pyrrolidin-3-yl)amino)quinazoline-8-carboxamide], 2.6 nM.
To `COc1ccc(C2CNCC2Nc2ncnc3c(C(N)=O)cccc23)cc1` (centres unmarked) [compound 6, 4-((4-(4-methoxyphenyl)pyrrolidin-3-yl)amino)quinazoline-8-carboxamide] belongs 2 nM; to `COc1cccc(C2CNCC2Nc2ncnc3c(C(N)=O)cccc23)c1` (centres unmarked) [compound 7, 4-((4-(3-methoxyphenyl)pyrrolidin-3-yl)amino)quinazoline-8-carboxamide], 2.6 nM.
In the case of `COc1ccccc1C1CNCC1Nc1ncnc2c(C(N)=O)cccc12` (centres unmarked) [compound 8, 4-((4-(2-methoxyphenyl)pyrrolidin-3-yl)amino)quinazoline-8-carboxamide], the IC50 was determined as 18 nM.
To `Cc1nc(NC2CNCC2c2ccc(F)cc2)c2cccc(C(N)=O)c2n1` (centres unmarked) [compound 17, 4-((4-(4-fluorophenyl)pyrrolidin-3-yl)amino)-2-methylquinazoline-8-carboxamide] belongs 2.4 nM.
To `COc1ccc(C2CNCC2Nc2nc(C)nc3c(C(N)=O)cccc23)cc1` (centres unmarked) [compound 18, 4-((4-(4-methoxyphenyl)pyrrolidin-3-yl)amino)-2-methylquinazoline-8-carboxamide] belongs 1.8 nM.
For the compound `NC(=O)c1cccc2c(NC3CNCC3c3cccc(F)c3)ccnc12` (centres unmarked) [compound 21, 4-((4-(3-fluorophenyl)pyrrolidin-3-yl)amino)quinoline-8-carboxamide], the IC50 was found to be 13 nM.
The value for `NC(=O)c1cccc2c(NC3CNCC3c3ccccc3F)ccnc12` (centres unmarked) [compound 22, 4-((4-(2-fluorophenyl)pyrrolidin-3-yl)amino)quinoline-8-carboxamide] was 9.4 nM.
To `COc1ccccc1C1CNCC1Nc1ccnc2c(C(N)=O)cccc12` (centres unmarked) [compound 23, 4-((4-(2-methoxyphenyl)pyrrolidin-3-yl)amino)quinoline-8-carboxamide] belongs 46 nM.
The value for `NC(=O)c1cccc2c(N[C@@H]3CNC[C@H]3c3cc(F)cc(C(F)(F)F)c3)ncnc12` [compound 46, 4-(((3S,4R)-4-(3-fluoro-5-(trifluoromethyl)phenyl)pyrrolidin-3-yl)amino)quinazoline-8-carboxamide] was 2.6 nM; that for `NC(=O)c1cccc2c(N[C@H]3CNC[C@@H]3c3cc(F)cc(C(F)(F)F)c3)ncnc12` [compound 47, 4-(((3R,4S)-4-(3-fluoro-5-(trifluoromethyl)phenyl)pyrrolidin-3-yl)amino)quinazoline-8-carboxamide] was 160 nM.
For `NC(=O)c1cccc2c(N[C@@H]3CNC[C@H]3c3cccc(C(F)(F)F)c3)ncnc12` [compound 49, 4-(((3S,4R)-4-(3-(trifluoromethyl)phenyl)pyrrolidin-3-yl)amino)quinazoline-8-carboxamide], the IC50 is 60 nM.
The value for `NC(=O)c1cccc2c(N[C@H]3CNC[C@@H]3c3cccc(C(F)(F)F)c3)ncnc12` [compound 50, 4-(((3R,4S)-4-(3-(trifluoromethyl)phenyl)pyrrolidin-3-yl)amino)quinazoline-8-carboxamide] was 3 nM; that for `NC(=O)c1cccc2c(N[C@H]3CNC[C@@H]3c3ccc(C(F)(F)F)cc3)ncnc12` [compound 53, 4-(((3R,4S)-4-(4-(trifluoromethyl)phenyl)pyrrolidin-3-yl)amino)quinazoline-8-carboxamide] was 66 nM; that for `NC(=O)c1cccc2c(N[C@H]3CNC[C@H]3c3ccc(C(F)(F)F)cc3)ncnc12` [compound 54, 4-(((3R,4R)-4-(4-(trifluoromethyl)phenyl)pyrrolidin-3-yl)amino)quinazoline-8-carboxamide] was 1.3 nM.
To `NC(=O)c1cccc2c(N[C@H]3CNC[C@@H]3c3cccc(OC(F)(F)F)c3)ncnc12` [compound 57] belongs 2.1 nM; to `NC(=O)c1cccc2c(N[C@H]3CNC[C@H]3c3cccc(OC(F)(F)F)c3)ncnc12` [compound 58, 4-(((3R,4R)-4-(3-(trifluoromethoxy)phenyl)pyrrolidin-3-yl)amino)quinazoline-8-carboxamide], 0.98 nM; to `NC(=O)c1cccc2c(N[C@H]3CNC[C@@H]3c3ccc(OC(F)(F)F)cc3)ncnc12` [compound 60, 4-(((3R,4S)-4-(4-(trifluoromethoxy)phenyl)pyrrolidin-3-yl)amino)quinazoline-8-carboxamide], 120 nM.
To `NC(=O)c1cccc2c(N[C@@H]3CNC[C@H]3c3ccc(OC(F)(F)F)cc3)ncnc12` [compound 61, 4-(((3S,4R)-4-(4-(trifluoromethoxy)phenyl)pyrrolidin-3-yl)amino)quinazoline-8-carboxamide] belongs 1.5 nM; to `COc1ccc([C@@H]2CNC[C@H]2Nc2ncnc3c(C(N)=O)cccc23)cc1F` [compound 62, 4-(((3S,4R)-4-(3-fluoro-4-methoxyphenyl)pyrrolidin-3-yl)amino)quinazoline-8-carboxamide], 1.5 nM; to `COc1ccc([C@H]2CNC[C@@H]2Nc2ncnc3c(C(N)=O)cccc23)cc1F` [compound 63, 4-(((3R,4S)-4-(3-fluoro-4-methoxyphenyl)pyrrolidin-3-yl)amino)quinazoline-8-carboxamide], 810 nM.
Regarding `NC(=O)c1cccc2c(N[C@H]3CNC[C@@H]3c3ccccc3Cl)ncnc12` [compound 65, 4-(((3R,4S)-4-(2-chlorophenyl)pyrrolidin-3-yl)amino)quinazoline-8-carboxamide], the IC50 was 340 nM.
To `NC(=O)c1cccc2c(N[C@@H]3CNC[C@H]3c3ccccc3Cl)ncnc12` [compound 66, 4-(((3S,4R)-4-(2-chlorophenyl)pyrrolidin-3-yl)amino)quinazoline-8-carboxamide] belongs 1.4 nM.
